{"source": "patent US11655239B2", "about": "(SHANGHAI INSTITUTE OF MATERIAL MEDICA, CHINESE ACADEMY OF …, priority 2019, dated 2023)", "key": {"[1]": {"molecular_target": "VEGFR-1 (Homo sapiens (Human), UniProt P17948)", "experiment": "Enzyme selectivity test (ELISA), VEGFR-1", "type": "biochemical", "experimental": "(§1) 1) Enzyme reaction substrate Poly(Glu, Tyr) 4:1 was diluted to 20 μg/mL with potassium-free PBS (10 mM sodium phosphate buffer, 150 mM NaCl, pH 7.2-7.4), and the microtiter plate was coated with 125 μL/well and placed at 37° C. for 12-16 hours of reaction. The liquid in the well was discard. The plate was washed three times with T-PBS (potassium-free PBS containing 0.1% Tween-20, 200 μL/well), 5 minutes each time. The ELISA plate was dried in an oven at 37° C. for 1 to 2 hours.\n(§2) 2) Reaction buffer (50 mM HEPES pH 7.4, 50 mM MgCl2, 0.5 mM MnCl2, 0.2 mM Na3VO4, 1 mM DTT) diluted ATP solution (49 μL) was added to each well, 1 μL of the compound to be tested was added to each well, and then 50 μL of DDR2 kinase domain recombinant protein diluted in the reaction buffer was added to start the reaction. Two control wells without ATP were set in each experiment. The plate placed on a shaker (100 rpm) at 37° C. for 1 hour of reaction. The liquid in the well was discarded and the plate was washed three times with T-PBS.\n(§3) 3) Antibody PY99 dilution solution (the antibody was diluted 1:500 with T-PBS containing BSA 5 mg/mL) was added at 100 μL/well, and shaken on a shaker at 37° C. for 0.5 hour of reaction. The liquid in the well was discarded and the plate was washed three times with T-PBS.\n(§4) 4) Horseradish peroxidase labeled goat anti-murine secondary antibody dilution solution (the antibody is diluted 1:2000 with T-PBS containing BSA 5 mg/ml) was added at 100 μL/well, and shaken on a shaker at 37° C. for 0.5 hour of reaction. The liquid in the well was discarded and the plate was washed three times with T-PBS.\n(§5) 5) 2 mg/ml of OPD color developing solution [diluted with 0.1 M citric acid-sodium citrate buffer (pH=5.4) containing 0.03% H2O2] was added at 100 μL/well and reacted for 1 to 10 minutes at 25° C. in the dark.\n(§6) 6) 2M H2SO4 was added at 50 μL/well to stop the reaction, and a tunable wavelength microplate reader VERSAmax was used for reading at a wavelength of 490 nm.\n(§7) The IC50 value was obtained by four-parameter regression using the software that came with the microplate reader. […]"}, "[2]": {"molecular_target": "PDGFR-α (Homo sapiens (Human), UniProt P16234)", "sequence (P16234 24-1089, species assumed)": "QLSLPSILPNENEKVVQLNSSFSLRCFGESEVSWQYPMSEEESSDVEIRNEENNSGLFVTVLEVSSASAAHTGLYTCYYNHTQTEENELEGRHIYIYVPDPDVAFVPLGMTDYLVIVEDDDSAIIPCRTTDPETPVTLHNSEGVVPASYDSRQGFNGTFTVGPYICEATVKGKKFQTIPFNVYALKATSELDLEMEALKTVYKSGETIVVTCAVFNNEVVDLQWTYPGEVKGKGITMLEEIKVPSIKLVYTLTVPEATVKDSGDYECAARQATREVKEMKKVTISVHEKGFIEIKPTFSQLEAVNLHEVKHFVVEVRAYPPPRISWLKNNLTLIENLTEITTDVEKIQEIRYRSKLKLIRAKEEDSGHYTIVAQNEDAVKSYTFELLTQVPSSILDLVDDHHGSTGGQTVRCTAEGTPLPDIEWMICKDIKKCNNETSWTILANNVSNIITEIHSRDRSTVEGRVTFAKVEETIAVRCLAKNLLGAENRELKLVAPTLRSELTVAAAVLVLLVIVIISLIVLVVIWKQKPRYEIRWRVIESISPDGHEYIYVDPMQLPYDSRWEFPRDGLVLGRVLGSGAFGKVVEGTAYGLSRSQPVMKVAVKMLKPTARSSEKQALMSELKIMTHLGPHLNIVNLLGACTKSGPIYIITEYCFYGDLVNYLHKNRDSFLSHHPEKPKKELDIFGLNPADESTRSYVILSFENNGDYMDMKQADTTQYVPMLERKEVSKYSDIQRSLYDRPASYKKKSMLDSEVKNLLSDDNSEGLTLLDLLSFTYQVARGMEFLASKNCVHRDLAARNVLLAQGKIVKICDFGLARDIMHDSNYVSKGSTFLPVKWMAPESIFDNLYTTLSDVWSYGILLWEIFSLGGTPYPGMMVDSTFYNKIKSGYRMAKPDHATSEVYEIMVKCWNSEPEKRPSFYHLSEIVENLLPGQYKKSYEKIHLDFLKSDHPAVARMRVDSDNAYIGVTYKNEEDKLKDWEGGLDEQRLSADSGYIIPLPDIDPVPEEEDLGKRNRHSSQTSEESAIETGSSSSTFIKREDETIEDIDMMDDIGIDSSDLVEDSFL", "experiment": "Enzyme selectivity test (ELISA), PDGFR-α", "type": "biochemical", "experimental": "as §1, §2, §3, §4, §5, §6, §7"}, "[3]": {"molecular_target": "ErbB4 (Homo sapiens (Human), UniProt Q15303)", "sequence (Q15303 26-1308, species assumed)": "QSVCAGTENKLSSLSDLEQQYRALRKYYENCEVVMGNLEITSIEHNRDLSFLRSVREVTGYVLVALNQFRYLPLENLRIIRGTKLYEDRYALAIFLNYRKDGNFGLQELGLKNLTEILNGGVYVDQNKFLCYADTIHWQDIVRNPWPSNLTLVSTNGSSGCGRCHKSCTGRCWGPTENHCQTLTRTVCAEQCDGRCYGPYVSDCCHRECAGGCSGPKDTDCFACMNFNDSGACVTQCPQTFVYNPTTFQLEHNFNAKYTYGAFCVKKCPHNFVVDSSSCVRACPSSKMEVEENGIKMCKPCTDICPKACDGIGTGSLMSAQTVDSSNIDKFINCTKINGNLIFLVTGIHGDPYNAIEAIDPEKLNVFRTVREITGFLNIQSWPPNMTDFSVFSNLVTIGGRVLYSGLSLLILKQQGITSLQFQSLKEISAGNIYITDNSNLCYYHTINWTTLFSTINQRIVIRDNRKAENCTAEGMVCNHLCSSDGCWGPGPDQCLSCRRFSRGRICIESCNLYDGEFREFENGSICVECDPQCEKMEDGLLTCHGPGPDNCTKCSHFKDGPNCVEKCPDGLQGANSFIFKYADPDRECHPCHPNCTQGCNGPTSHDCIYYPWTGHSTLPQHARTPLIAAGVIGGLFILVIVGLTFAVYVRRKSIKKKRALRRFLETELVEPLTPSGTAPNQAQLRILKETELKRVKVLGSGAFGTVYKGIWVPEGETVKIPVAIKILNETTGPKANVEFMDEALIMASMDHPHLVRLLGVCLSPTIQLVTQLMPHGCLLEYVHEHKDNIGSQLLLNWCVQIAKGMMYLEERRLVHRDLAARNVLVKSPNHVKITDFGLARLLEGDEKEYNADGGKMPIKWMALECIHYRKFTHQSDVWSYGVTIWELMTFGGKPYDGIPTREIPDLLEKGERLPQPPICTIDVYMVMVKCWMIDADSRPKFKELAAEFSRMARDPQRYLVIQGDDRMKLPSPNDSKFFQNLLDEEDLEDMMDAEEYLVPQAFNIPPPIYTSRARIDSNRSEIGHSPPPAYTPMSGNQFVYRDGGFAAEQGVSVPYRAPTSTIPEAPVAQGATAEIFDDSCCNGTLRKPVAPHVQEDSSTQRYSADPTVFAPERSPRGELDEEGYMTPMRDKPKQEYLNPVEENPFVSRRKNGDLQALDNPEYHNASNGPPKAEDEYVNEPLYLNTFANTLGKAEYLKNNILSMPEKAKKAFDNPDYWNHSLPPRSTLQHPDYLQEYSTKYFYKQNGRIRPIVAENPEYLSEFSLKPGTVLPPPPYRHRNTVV", "experiment": "Enzyme selectivity test (ELISA), ErbB4", "type": "biochemical", "experimental": "as §1, §2, §3, §4, §5, §6, §7"}, "[4]": {"molecular_target": "Abl (Homo sapiens (Human), UniProt P00519)", "sequence (P00519 whole entry, species assumed)": "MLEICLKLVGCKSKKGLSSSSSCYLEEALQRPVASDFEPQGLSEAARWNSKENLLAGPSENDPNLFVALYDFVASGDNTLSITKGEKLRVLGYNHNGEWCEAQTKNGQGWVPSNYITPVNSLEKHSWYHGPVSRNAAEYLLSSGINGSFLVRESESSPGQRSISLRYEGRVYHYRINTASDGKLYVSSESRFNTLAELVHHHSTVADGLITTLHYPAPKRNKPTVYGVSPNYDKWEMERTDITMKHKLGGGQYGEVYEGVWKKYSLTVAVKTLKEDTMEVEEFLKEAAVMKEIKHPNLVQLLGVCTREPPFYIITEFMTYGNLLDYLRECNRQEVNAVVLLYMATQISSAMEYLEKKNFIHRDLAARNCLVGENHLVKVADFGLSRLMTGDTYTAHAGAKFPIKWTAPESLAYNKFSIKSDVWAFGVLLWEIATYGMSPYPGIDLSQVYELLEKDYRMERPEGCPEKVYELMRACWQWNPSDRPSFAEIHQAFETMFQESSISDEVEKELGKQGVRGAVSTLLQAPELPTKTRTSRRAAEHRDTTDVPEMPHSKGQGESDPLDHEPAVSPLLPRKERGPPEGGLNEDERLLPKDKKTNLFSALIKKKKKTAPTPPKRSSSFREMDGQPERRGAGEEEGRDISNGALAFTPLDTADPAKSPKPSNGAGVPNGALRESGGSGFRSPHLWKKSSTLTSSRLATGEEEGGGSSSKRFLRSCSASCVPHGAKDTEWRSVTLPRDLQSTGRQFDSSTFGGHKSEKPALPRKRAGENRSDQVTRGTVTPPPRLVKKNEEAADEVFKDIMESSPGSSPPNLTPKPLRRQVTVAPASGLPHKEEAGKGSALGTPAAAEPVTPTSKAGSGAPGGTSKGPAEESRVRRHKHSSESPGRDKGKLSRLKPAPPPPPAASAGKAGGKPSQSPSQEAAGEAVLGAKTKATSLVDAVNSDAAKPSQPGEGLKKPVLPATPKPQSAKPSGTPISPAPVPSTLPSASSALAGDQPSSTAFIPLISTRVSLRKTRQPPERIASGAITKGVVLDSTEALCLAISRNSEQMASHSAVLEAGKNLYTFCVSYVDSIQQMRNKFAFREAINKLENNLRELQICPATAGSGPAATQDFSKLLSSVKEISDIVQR", "experiment": "Enzyme selectivity test (ELISA), Abl", "type": "biochemical", "experimental": "as §1, §2, §3, §4, §5, §6, §7"}, "[5]": {"molecular_target": "KDR (Homo sapiens (Human), UniProt P35968)", "sequence (P35968 20-1356, species assumed)": "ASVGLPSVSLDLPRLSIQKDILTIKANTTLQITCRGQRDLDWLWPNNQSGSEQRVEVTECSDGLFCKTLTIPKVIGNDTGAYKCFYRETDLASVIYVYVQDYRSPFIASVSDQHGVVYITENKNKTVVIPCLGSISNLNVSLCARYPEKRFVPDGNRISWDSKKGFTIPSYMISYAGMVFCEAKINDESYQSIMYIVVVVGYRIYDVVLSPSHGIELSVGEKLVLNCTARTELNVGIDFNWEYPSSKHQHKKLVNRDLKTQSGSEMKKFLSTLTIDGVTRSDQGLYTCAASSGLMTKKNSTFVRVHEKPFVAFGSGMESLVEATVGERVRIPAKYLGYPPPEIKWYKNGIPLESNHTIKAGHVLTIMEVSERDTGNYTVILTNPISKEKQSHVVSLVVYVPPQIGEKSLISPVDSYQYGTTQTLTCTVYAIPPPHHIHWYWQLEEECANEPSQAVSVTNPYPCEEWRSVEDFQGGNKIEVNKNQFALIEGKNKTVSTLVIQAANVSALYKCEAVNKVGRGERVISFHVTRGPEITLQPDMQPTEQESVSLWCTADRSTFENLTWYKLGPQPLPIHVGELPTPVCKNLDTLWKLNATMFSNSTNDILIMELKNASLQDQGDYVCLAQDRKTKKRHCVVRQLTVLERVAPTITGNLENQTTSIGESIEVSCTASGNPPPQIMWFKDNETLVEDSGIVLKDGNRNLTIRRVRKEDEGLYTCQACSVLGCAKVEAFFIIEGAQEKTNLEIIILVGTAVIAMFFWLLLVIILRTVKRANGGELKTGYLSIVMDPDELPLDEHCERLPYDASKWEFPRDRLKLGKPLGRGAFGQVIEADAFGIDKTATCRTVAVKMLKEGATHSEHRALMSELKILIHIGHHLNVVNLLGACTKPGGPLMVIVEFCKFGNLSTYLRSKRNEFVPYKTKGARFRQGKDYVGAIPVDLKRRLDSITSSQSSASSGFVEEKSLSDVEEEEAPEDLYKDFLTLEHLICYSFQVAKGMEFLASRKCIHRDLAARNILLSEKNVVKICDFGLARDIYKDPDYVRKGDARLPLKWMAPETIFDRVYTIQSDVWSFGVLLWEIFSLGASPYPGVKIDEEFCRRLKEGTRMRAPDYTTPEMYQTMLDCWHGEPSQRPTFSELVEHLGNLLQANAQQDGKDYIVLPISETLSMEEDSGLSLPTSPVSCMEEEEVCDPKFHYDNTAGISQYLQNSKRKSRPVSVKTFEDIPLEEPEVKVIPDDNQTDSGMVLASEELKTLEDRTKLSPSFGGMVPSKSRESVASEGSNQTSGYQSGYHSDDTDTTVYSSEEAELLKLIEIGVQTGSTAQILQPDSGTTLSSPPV", "experiment": "Enzyme selectivity test (ELISA), KDR", "type": "biochemical", "experimental": "as §1, §2, §3, §4, §5, §6, §7"}, "[6]": {"test_system": "kinases", "experiment": "Enzyme selectivity test, kinase panel overall", "type": "biochemical", "details": "kinase panel of Table 5", "description": "Except that the enzyme was different, other test methods and conditions were the same as the DDR2 enzyme activity test method in Effect example 1."}, "[7]": {"test_system": "bronchial epithelial cell line Beas-2B", "experiment": "Cytotoxic activity test (MTS), Beas-2B", "type": "cell-based, human", "details": "10 μM", "experimental": "Experimental objective: The cytotoxic activity of compound S15 on bronchial epithelial cell line Beas-2B and lung fibroblast cell line MRC-5 was tested.\n1) The human bronchial epithelial cell line Beas-2B and the human embryonic lung fibroblast cell line MRC-5 were collected, and inoculated at a certain density (about 5000-10000 cells) on a 96-well plate (the edge wells were filled with sterile water or PBS). A control was set on each plate (100 μL of culture medium was added);\n2) The plate was incubated overnight at 37° C., 5% CO2. The plate was turned upside down and observed under the microscope.\n3) The solutions of different concentrations of the compounds to be tested were added to each well, and a control well (culture medium and MTS solution with cells but no drug) and a blank well (without cells, medium and MTS solution) were set, 3 to 5 repetition wells were set for each group. Incubation was performed at 37° C. for 48-72 hours.\n4) 10 μL/well of MTS/PMS (20:1, Promega Corp) solution was added to each well containing 100 μL of culture medium, and then the plate was gently shaken. The plate was incubated at 37° C. for 2 to 4 hours.\n5) M5 microplate reader (Molecular Device, USA) was used to measure the absorbance of the solution at 490 nm. […]"}, "[8]": {"test_system": "mouse model of BLM-induced lung injury", "experiment": "Serum ALP and LDH levels", "type": "in vivo", "details": "mice", "description": "Alkaline phosphatase (ALP) level and lactate dehydrogenase (LDH) level. An automatic blood indicator analyzer and related kits (alkaline phosphatase assay kit and lactate dehydrogenase assay kit) were used to measure related indicators.\nSerum lactate dehydrogenase (LDH) and alkaline phosphatase (ALP) are important markers of inflammatory response of lung injury."}}}
{"smiles": "O=C(Nc1cccc(C(F)(F)F)c1)c1ccc(C2CC2)c(-c2ccc3nc(Nc4cnn(C5CC5)c4)ncc3c2)c1", "note": "[Compound S15, 4-cyclopropyl-3-(2-((1-cyclopropyl-1H-pyrazol-4-yl)amino)quinazolin-6-yl)-N-(3-(trifluoromethyl)phenyl)benzamide]", "values": [{"measurement": "IC50", "setting": "[1]", "result": "> 1", "unit": "µM"}, {"measurement": "IC50", "setting": "[2]", "result": "> 1", "unit": "µM"}, {"measurement": "IC50", "setting": "[3]", "result": "> 0.01", "unit": "µM"}, {"measurement": "IC50", "setting": "[4]", "result": "< 0.01", "unit": "µM"}, {"measurement": "IC50", "setting": "[5]", "result": "< 0.01", "unit": "µM"}, {"measurement": "selectivity for kinases", "setting": "[6]", "result": "good selectivity"}, {"measurement": "cytotoxic activity on Beas-2B", "setting": "[7]", "result": "almost no toxicity"}, {"measurement": "ALP serum level", "setting": "[8]", "result": "inhibit the level of ALP more effectively than nintedanib"}, {"measurement": "LDH serum level", "setting": "[8]; 90 mg/kg high dose group", "result": "effectively inhibit serum LDH level"}]}
